Experimental data: patent publication US7662789B2, “Peptide substance restoring myocardium function” (“Access Bioscience” CJSC, priority 2004, dated 2010)
Like-named read-outs stand apart in the source and are kept apart here. Marks after values point to notes of the source that are not given here. Where a SMILES comes first, the peptide text is derived from it.

Key:
[1] = tested on: white mongrel male mice; assay: Acute toxicity, single intramuscular administration in mice; type: in vivo; conditions: single i.m. 1-5 mg/kg; dose 5000 times exceeding the therapeutic one
Protocol: The experiment aimed at the study of acute toxicity was conducted on 66 white mongrel male mice with body weight of 20-23 g. The animals were randomly subdivided into 6 equal groups. The substance was administered once, intramuscularly, in 0.25 ml volume, in the doses of 1 mg/kg, 2 mg/kg, 3 mg/kg, 4 mg/kg and 5 mg/kg in sterile 0.9% NaCl solution. The control animals received 0.9% NaCl solution.

[2] = tested on: organotypic cardiac culture explants; conditions: 3 days incubation
Protocol: Cardiac tissue explants (from the left and right ventricles) of pubertal Wistar rats were cultivated in petri dishes with collagen bottom cover. The nutritious medium was composed of 35% Eagle's medium, 35% Hanx solution, 25% calf fetal serum and 5% of chicken embryonic extract with added glucose, insulin, gentamycin and glutamin. Ala-Glu-Asp-Arg (SEQ ID NO:1) tetrapeptide was added into the cultural medium in fixed concentrations, from 0.01 to 20.0 ng per ml of nutritious medium. After 3 days of incubation at the temperature of 37° C. the increase in the area of explants was identified using phase contrast microscope. Biological activity of the preparation was expressed in the change of square index (SI) of the explants cultivated in the medium containing the peptide, as compared to the control.

[3] = tested on: white mongrel male rats; assay: Sub-acute toxicity, 90 days intramuscular in rats; type: in vivo; conditions: 90 days i.m. daily; 1 μg/kg, 0.1 mg/kg, 1 mg/kg; 100-1000 times the therapeutic doses
Protocol: The study of sub-acute toxicity was conducted on 60 white mongrel male rats with body weight of 160-240 g. […] Before the substance's administration, as well as on the 30th, 60th and 90th day after the beginning of the course the morphological composition and the properties of the animals' peripheric blood were studied. Upon completion of the experiment the biochemical and coagulological indices of the animals' blood were studied.

[4] = tested on: male guinea pigs; assay: Chronic toxicity, 6 months intramuscular in guinea pigs
Protocol: Common toxicity of Ala-Glu-Asp-Arg (SEQ ID NO:1) tetrapeptide was studied in compliance with the requirements stated in “Manual for experimental (pre-clinical) study of new pharmaceutical substances” (2000): acute toxicity in case of single administration of the substance, as well as sub-acute and chronic toxicity in case of long-term administration of the tetrapeptide.
The studies of chronic toxicity were conducted for 6 months, basing on the duration of the recommended clinical administration of the preparation, on 96 male guinea pigs with body weight of 300-340 g. The experimental animals received the tetrapeptide daily, once a day, intramuscularly, for 6 months in the doses of 1 μg/kg, 0.1 mg/kg and 1 mg/kg in 0.5 ml of 0.9% NaCl solution. The control animals received 0.9% NaCl solution in the same volume and by the same schedule. Common methods were used for the identification of the quantity of erythrocytes, hemoglobin, reticulocytes, thrombocytes, leukocytes, as well as of the leukocyte formula, erythrocyte sedimentation rate (ESR) and erythrocyte resistance in the peripheric blood of the animals. Alongside with this general protein content in the blood serum was estimated by Lowry's method, as well as of potassium and sodium using the method of plasma spectrophotometry. After the completion of the experiment the pathomorphological study of the brain and spinal cord, spinal cord ganglia, thyroid gland, parathyroid glands, adrenal glands, testis, pituitary gland, heart, lungs, aorta, liver, kidney, urinary bladder, pancreas, stomach, small intestine, large intestine, thymus, spleen, lymph nodes and bone marrow was conducted.

[5] = tested on: experimental myocardium infarction in rats; assay: Experimental myocardium infarction by left coronary artery vasoligation in rats; type: in vivo; conditions: for Necrosis zone size, % of ventricle mass: 0.05 μg per animal i.p. 1, 3, 5 h after occlusion; for Death rate: 20 animals per group
Protocol: The experiment was conducted on 40 white mongrel rats each weighing 180-200 g. The animals were randomly subdivided into two groups, 20 animals in each. Myocardium infarction (MI) was induced by vasoligation of the left coronary artery. Ala-Glu-Asp-Arg tetrapeptide was administered to the animals intraperitoneally in the dose of 0.05 μg per animal in sterile 0.9% NaCl solution three times—in 1, 3 and 5 hours after coronary occlusion. Rats were decapitated in 6 and 24 hours after the surgery. Animals subjected to the surgery, which intraperitoneally received 0.9% NaCl solution, served as the control. MI zone size was identified gravimetrically. Myocardium fragments were fixed for light and electronic microscopy, part of the material was frozen in liquid nitrogen for biochemical studies.

[6] = 0.05 μg per animal i.p., 6 hours
[7] = 0.05 μg per animal i.p., 24 hours

C[C@H](N)C(=O)N[C@@H](CCC(=O)O)C(=O)N[C@@H](CC(=O)O)C(=O)N[C@@H](CCCNC(=N)N)C(=O)O [Tetrapeptide, L-alanyl-L-glutamyl-L-aspartyl-L-arginine] (H-AEDR-OH)
Acute toxicity, toxic reactions [1]: does not cause toxic reactions
SI, % with respect to the control ([2]; 0.01 ng/ml): 10%
SI, % with respect to the control ([2]; 0.05 ng/ml): 20* %
SI, % with respect to the control ([2]; 0.1 ng/ml): 22* %
SI, % with respect to the control ([2]; 0.5 ng/ml): 20* %
SI, % with respect to the control ([2]; 1.0 ng/ml): 15* %
SI, % with respect to the control ([2]; 2.0 ng/ml): 20* %
SI, % with respect to the control ([2]; 10.0 ng/ml): 27* %
SI, % with respect to the control ([2]; 20.0 ng/ml): 8%
Sub-acute toxicity, side effects [3]: absence of side effects
Basophils ([4]; 1 μg/kg, 3 months): 0.69 ± 0.05%
ESR ([4]; 1 μg/kg, 3 months): 1.87 ± 0.07 mm/hour
Eosinophils ([4]; 1 μg/kg, 3 months): 0.64 ± 0.04%
Erythrocyte resistance, minimum ([4]; 1 μg/kg, 3 months): 0.33 ± 0.02 % NaCl
Erythrocytes ([4]; 1 μg/kg, 3 months): 5.4 ± 0.2 ×10^12/l
General protein in the blood serum ([4]; 1 μg/kg, 3 months): 72.6 ± 3.3 g/L
Hemoglobin ([4]; 1 μg/kg, 3 months): 13.8 ± 1.2
Leukocytes ([4]; 1 μg/kg, 3 months): 11.2 ± 0.8 ×10^9/l
Lymphocytes ([4]; 1 μg/kg, 3 months): 50.7 ± 2.4%
Monocytes ([4]; 1 μg/kg, 3 months): 2.4 ± 0.03%
Potassium in the blood serum ([4]; 1 μg/kg, 3 months): 5.3 ± 1.8 mmol/L
Reticulocytes ([4]; 1 μg/kg, 3 months): 1.2 ± 0.07%
Segmented neutrophils ([4]; 1 μg/kg, 3 months): 44.9 ± 2.5%
Sodium in the blood serum ([4]; 1 μg/kg, 3 months): 154.8 ± 6.8 mmol/L
Stab neutrophils ([4]; 1 μg/kg, 3 months): 0.27 ± 0.07%
Thrombocytes ([4]; 1 μg/kg, 3 months): 143.6 ± 8.4 ×10^9/l
Basophils ([4]; 1 μg/kg, 6 months): 0.71 ± 0.05%
ESR ([4]; 1 μg/kg, 6 months): 2.05 ± 0.04 mm/hour
Eosinophils ([4]; 1 μg/kg, 6 months): 0.75 ± 0.08%
Erythrocyte resistance, maximum ([4]; 1 μg/kg, 6 months): 0.44 ± 0.04 % NaCl
Erythrocyte resistance, minimum ([4]; 1 μg/kg, 6 months): 0.35 ± 0.05 % NaCl
Erythrocytes ([4]; 1 μg/kg, 6 months): 5.2 ± 0.4 ×10^12/l
General protein in the blood serum ([4]; 1 μg/kg, 6 months): 73.1 ± 3.6 g/L
Hemoglobin ([4]; 1 μg/kg, 6 months): 14.2 ± 0.6
Leukocytes ([4]; 1 μg/kg, 6 months): 11.9 ± 0.5 ×10^9/l
Lymphocytes ([4]; 1 μg/kg, 6 months): 52.7 ± 2.2%
Monocytes ([4]; 1 μg/kg, 6 months): 2.5 ± 0.05%
Potassium in the blood serum ([4]; 1 μg/kg, 6 months): 5.4 ± 2.2 mmol/L
Reticulocytes ([4]; 1 μg/kg, 6 months): 1.3 ± 0.08%
Segmented neutrophils ([4]; 1 μg/kg, 6 months): 43.4 ± 3.2%
Sodium in the blood serum ([4]; 1 μg/kg, 6 months): 154.6 ± 6.9 mmol/L
Stab neutrophils ([4]; 1 μg/kg, 6 months): 0.36 ± 0.05%
Thrombocytes ([4]; 1 μg/kg, 6 months): 144.9 ± 9.8 ×10^9/l
Chronic toxicity, side effects ([4]; 6 months i.m. daily, 1 μg/kg, 0.1 mg/kg, 1 mg/kg, 100-1000 times the therapeutic doses): absence of side effects
General status, blood indices, internal organs, cardiovascular, respiratory, liver and kidney functions ([4]; long-term administration): no pathologic changes
Necrosis zone size, % of ventricle mass ([5]; 6 hours): 38.1 ± 1.8 % of ventricle mass
Necrosis zone size, % of ventricle mass ([5]; 24 hours): 49.6 ± 1.6 % of ventricle mass
Content in the blood serum: CPK [5, 6]: 961 ± 52 nmole/s · 1
Content in the blood serum: LDH [5, 6]: 309 ± 16 nmole/s · 1
Content in the blood serum: glucose [5, 6]: 3.12 ± 0.09 mmol/L
Glycogen content in the myocardium [5, 6]: 1.05 ± 0.12 g/kg of the tissue
Death rate [5, 6]: 2
Content in the blood serum: CPK [5, 7]: 923 ± 38 nmole/s · 1
Content in the blood serum: LDH [5, 7]: 201 ± 15 nmole/s · 1
Content in the blood serum: glucose [5, 7]: 3.01 ± 0.11 mmol/L
Glycogen content in the myocardium [5, 7]: 1.18 ± 0.12 g/kg of the tissue
Death rate [5, 7]: 1
Mortality rate during the first 24 hours after infarction ([5]; 0.05 μg per animal i.p., control 45%): 15%
Decrease of glucose content in the blood ([5]; acute myocardium ischemia, versus control): ~1.5 times
Coefficient of mitochondria energy efficiency ([5]; electronograms, 24 hours since beginning of MI, control 41.5±2.4): 93.2±2.3%
